In publication PMC12638379, “An innovative approach to development of new pyrazolylquinolin-2-one hybrids as dual EGFR and BRAF^V600E inhibitors” (Molecular Diversity, 2025):
Read-outs that look alike come from different tables or passages of the source.

Key:
EGFR = target: T1, EGFR (Homo sapiens, UniProt P00533); test: EGFR inhibitory assay; assay type: biochemical; details: for %inh: EGFR, unit not given
T1 construct: EGFR cytoplasmic domain (EGFR-CD, amino acids 645–1186); His6 (N); made in house; host or cells: Sf-9 insect cells (baculovirus)

[1] = test system: lung cancer (HOP-92) cell line; test: MTT antiproliferative assay, HOP-92; assay type: cell-based, human
Description: […]. […] See Appendix B.
After 24 h of culture incubation and supernatants discarded.

[2] = test system: breast cancer (T47D) cell line; test: MTT antiproliferative assay, T-47D
Description: The median inhibitory concentration (IC50) and GI50 (average IC50) against the three cancer cell lines were calculated. See Appendix B.
Cells were cultured using DMEM (Invitrogen/Life Technologies) supplemented with 10% FBS (Hyclone,), 10 ug/ml of insulin (Sigma), and 1% penicillin-streptomycin. Plate cells (cells density 1.2 – 1.8 × 10,000 cells/well) in a volume of 100µl complete growth medium + 100 ul of the tested compound per well in a 96-well plate for 24 hours before the MTT assay. In atypical experiment, one hundred micro liters of serial 10-fold diluted sterile tested compounds were added to final concentrations of […] using culture media as negative control. After 24 h of culture incubation and supernatants discarded. HOP-92 lung, MOLT-4 leukemia, and T-47D breast cell lines were trypsinized and washed with Ca2/Mg2 free PBS (pH 7.2). we removed cultures from incubator into laminar flow hood or other sterile work area. […] Each test should include a blank containing complete medium without cells. […] Add reconstituted MTT in an amount equal to 10% of the culture medium volume. Return cultures to incubator for 2-4 hours depending on cell type and maximum cell density. […] Spectrophotometrically absorbance was measured at a wavelength of 570 nm. Measure the background absorbance of multiwell plates at 690 nm and subtract from the […] measurement. Results from all experiments were recorded and the percentage of viable cells was calculated.

[3] = MTT cytotoxicity on normal cell line WI-38; details: human, WI-38 normal cells, % viability
normal cell line WI-38 = test: MTT cytotoxicity on normal cell line WI-38
BRAF^V600E = BRAF^V600E (Homo sapiens, UniProt P15056, V600E); test: BRAF^V600E inhibitory assay (B-Raf (V600E) Kinase Assay); assay type: biochemical; details: read-out: BRAF^V600E inhibition IC50 ± SEM
NCI 60 cancer cell lines = test: NCI anticancer screening over a panel of 60 cancer cells, single concentration 10 µM; assay type: cell-based, human; details: Homo sapiens, read-out: % Growth Inhibition (GI %)
Outline: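 Primary single-dose screen at 10 µM over the NCI panel of 60 human tumour cell lines (leukemia, CNS, lung, colon, kidney, ovary, breast, prostate). The standard NCI Developmental Therapeutics Program protocol was used.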

T1 sequence (P00533 669-1210): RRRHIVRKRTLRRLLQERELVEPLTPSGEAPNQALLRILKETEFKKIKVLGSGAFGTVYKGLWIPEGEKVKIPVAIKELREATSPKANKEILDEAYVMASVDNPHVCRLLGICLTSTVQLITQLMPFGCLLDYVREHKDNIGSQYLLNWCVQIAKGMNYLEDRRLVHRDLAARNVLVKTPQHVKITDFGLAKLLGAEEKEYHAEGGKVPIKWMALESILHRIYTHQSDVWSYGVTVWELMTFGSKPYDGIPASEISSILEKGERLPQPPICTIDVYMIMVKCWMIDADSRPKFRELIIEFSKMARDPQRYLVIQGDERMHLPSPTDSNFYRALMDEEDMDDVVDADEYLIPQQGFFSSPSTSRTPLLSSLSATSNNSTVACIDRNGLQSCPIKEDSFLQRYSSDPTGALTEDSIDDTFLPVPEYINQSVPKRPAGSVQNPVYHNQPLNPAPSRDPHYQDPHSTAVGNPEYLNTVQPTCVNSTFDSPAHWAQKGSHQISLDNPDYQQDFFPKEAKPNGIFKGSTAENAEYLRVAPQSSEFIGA
Sequence of BRAF^V600E (P15056 whole entry V600E): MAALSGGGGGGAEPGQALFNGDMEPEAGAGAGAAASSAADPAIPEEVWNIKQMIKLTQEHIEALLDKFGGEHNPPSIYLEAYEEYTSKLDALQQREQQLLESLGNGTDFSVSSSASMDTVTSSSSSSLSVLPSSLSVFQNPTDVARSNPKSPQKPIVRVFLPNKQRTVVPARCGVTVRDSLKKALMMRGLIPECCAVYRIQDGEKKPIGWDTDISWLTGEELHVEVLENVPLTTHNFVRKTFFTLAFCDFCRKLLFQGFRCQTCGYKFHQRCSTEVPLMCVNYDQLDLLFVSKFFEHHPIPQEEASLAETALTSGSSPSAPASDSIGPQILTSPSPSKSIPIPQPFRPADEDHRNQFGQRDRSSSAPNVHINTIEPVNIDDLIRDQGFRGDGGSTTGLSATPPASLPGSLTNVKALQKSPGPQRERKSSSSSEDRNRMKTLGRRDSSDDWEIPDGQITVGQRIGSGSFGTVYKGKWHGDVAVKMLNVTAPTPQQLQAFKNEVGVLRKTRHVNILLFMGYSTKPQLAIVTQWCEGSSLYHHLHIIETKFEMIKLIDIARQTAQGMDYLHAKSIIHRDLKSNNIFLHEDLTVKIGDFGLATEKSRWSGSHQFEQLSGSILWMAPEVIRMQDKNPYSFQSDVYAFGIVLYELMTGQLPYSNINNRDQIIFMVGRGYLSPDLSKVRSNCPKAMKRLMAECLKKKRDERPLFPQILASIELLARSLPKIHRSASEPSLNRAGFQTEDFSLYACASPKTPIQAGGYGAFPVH

C/C(=N\Nc1ccc(C(=O)O)cc1)c1cnn(-c2cc(=O)[nH]c3ccc(C)cc23)c1C [Compound 4g, (E)-4-(2-(1-(5-methyl-1-(6-methyl-2-oxo-1,2-dihydroquinolin-4-yl)-1H-pyrazol-4-yl)ethylidene)hydrazineyl)benzoic acid]
%inh (EGFR; conc 0.01 (log -2)): 21% | %inh (EGFR; conc 0.1 (log -1)): 44.2% | %inh (EGFR; conc 1 (log 0)): 71.4% | %inh (EGFR; conc 10 (log 1)): 86.3% | %inh (EGFR; conc 100 (log 2)): 94.5% | IC50 (EGFR; read-out: EGFR inhibition IC50 ± SEM): 0.194 ± 0.007 µM | % viability ([1]; HOP-92, MTT, 25uM, listed as Ws7, 25 µM): 48.02% | % viability ([1]; HOP-92, MTT, 100uM, listed as Ws7, 100 µM): 33.71% | viability at 0.4 µM ([1]; Homo sapiens, HOP-92, HOP-92, MTT, 0.4uM, read-out: % viability): 78% | viability at 1.6 µM ([1]; Homo sapiens, HOP-92, HOP-92, MTT, 1.6uM, read-out: % viability): 67% | viability at 6.3 µM ([1]; Homo sapiens, HOP-92, HOP-92, MTT, 6.3uM, read-out: % viability): 56.5% | viability at 25 µM ([1]; Homo sapiens, HOP-92, HOP-92, MTT, 25uM, read-out: % viability): 48% | viability at 100 µM ([1]; Homo sapiens, HOP-92, HOP-92, MTT, 100uM, read-out: % viability): 33.7% | IC50 ([1]; Homo sapiens, HOP-92, MTT, read-out: Antiproliferative activity IC50 ± SEM, HOP-92): 14.7 ± 0.66 µM | viability at 0.4 µM ([2]; Homo sapiens, T47D, T-47D, 0.4uM (log conc. -0.41)): 68.5% | viability at 1.6 µM ([2]; Homo sapiens, T47D, T-47D, 1.6uM (log conc. 0.19)): 61.7% | viability at 6.3 µM ([2]; Homo sapiens, T47D, T-47D, 6.3uM (log conc. 0.8)): 55% | viability at 25 µM ([2]; Homo sapiens, T47D, T-47D, 25uM (log conc. 1.4)): 44.6% | viability at 100 µM ([2]; Homo sapiens, T47D, T-47D, 100uM (log conc. 2)): 34% | IC50 ([2]; Homo sapiens, T47D, read-out: Antiproliferative activity IC50 ± SEM, T-47D, MTT): 9.71 ± 0.34 µM | % viability ([2]; T-47D, 0.4uM (log conc. -0.41), listed as Ws7, 0.4 µM): 68.49% | % viability ([2]; T-47D, 1.6uM (log conc. 0.19), listed as Ws7, 1.6 µM): 61.66% | % viability ([2]; T-47D, 6.3uM (log conc. 0.8), listed as Ws7, 6.3 µM): 55.01% | % viability ([2]; T-47D, 25uM (log conc. 1.4), listed as Ws7, 25 µM): 44.58% | % viability ([2]; T-47D, 100uM (log conc. 2), listed as Ws7, 100 µM): 33.98% | viability at 24 h, 0.4 µM ([3]; WI38, 0.4uM (log conc. -0.41)): 80.4% | viability at 24 h, 1.6 µM ([3]; WI38, 1.6uM (log conc. 0.19)): 70.2% | viability at 24 h, 6.3 µM ([3]; WI38, 6.3uM (log conc. 0.8)): 62.8% | viability at 24 h, 25 µM ([3]; WI38, 25uM (log conc. 1.4)): 51.6% | viability at 24 h, 100 µM ([3]; WI38, 100uM (log conc. 2)): 44.1% | IC50 (normal cell line WI-38; Homo sapiens, read-out: Antiproliferative activity IC50 ± SEM): 37.6 ± 1.5 µM | % viability (normal cell line WI-38; WI38, 0.4uM (log conc. -0.41), listed as Ws7, 0.4 µM): 80.43% | % viability (normal cell line WI-38; WI38, 1.6uM (log conc. 0.19), listed as Ws7, 1.6 µM): 70.19% | % viability (normal cell line WI-38; WI38, 6.3uM (log conc. 0.8), listed as Ws7, 6.3 µM): 62.8% | % viability (normal cell line WI-38; WI38, 25uM (log conc. 1.4), listed as Ws7, 25 µM): 51.55% | % viability (normal cell line WI-38; WI38, 100uM (log conc. 2), listed as Ws7, 100 µM): 44.1% | IC50 (BRAF^V600E): 0.194 ± 0.008 µM | inhibition at 10 µM (NCI 60 cancer cell lines; 786-0, Renal cancer 786-0, 10 μM): 6.84% | inhibition at 10 µM (NCI 60 cancer cell lines; A498, Renal cancer A498, 10 μM): < 5% | inhibition at 10 µM (NCI 60 cancer cell lines; A549, Non-small cell lung cancer A549/ATCC, 10 μM): < 5% | inhibition at 10 µM (NCI 60 cancer cell lines; ACHN, Renal cancer ACHN, 10 μM): < 5% | inhibition at 10 µM (NCI 60 cancer cell lines; BT-549, Breast cancer BT-549, 10 μM): 11.6% | inhibition at 10 µM (NCI 60 cancer cell lines; CAKI-1, Renal cancer CAKI-1, 10 μM): 10.3% | inhibition at 10 µM (NCI 60 cancer cell lines; CCRF-CEM, Leukemia CCRF-CEM, 10 μM): 6.98% | inhibition at 10 µM (NCI 60 cancer cell lines; DU-145, Prostate cancer DU-145, 10 μM): < 5% | inhibition at 10 µM (NCI 60 cancer cell lines; EKVX, Non-small cell lung cancer EKVX, 10 μM): 7.01% | inhibition at 10 µM (NCI 60 cancer cell lines; HCC 2998, Colon cancer HCC-2998, 10 μM): < 5% | inhibition at 10 µM (NCI 60 cancer cell lines; HL-60, Leukemia HL-60(TB), 10 μM): < 5% | inhibition at 10 µM (NCI 60 cancer cell lines; HOP-62, Non-small cell lung cancer HOP-62, 10 μM): 6.86% | inhibition at 10 µM (NCI 60 cancer cell lines; HOP-92, Non-small cell lung cancer HOP-92, 10 μM): 93.9% | inhibition at 10 µM (NCI 60 cancer cell lines; HT-29, Colon cancer HT29, 10 μM): < 5% | inhibition at 10 µM (NCI 60 cancer cell lines; Hs-578T, Breast cancer HS 578T, 10 μM): 7.48% | inhibition at 10 µM (NCI 60 cancer cell lines; IGROV-1, Ovarian cancer IGROV1, 10 μM): < 5% | inhibition at 10 µM (NCI 60 cancer cell lines; K562, Leukemia K-562, 10 μM): < 5% | inhibition at 10 µM (NCI 60 cancer cell lines; LOX IMVI, Melanoma LOX IMVI, 10 μM): 5.11% | inhibition at 10 µM (NCI 60 cancer cell lines; Leukemia SR, 10 μM): 11.4% | inhibition at 10 µM (NCI 60 cancer cell lines; MCF7, Breast cancer MCF7, 10 μM): 9.62% | inhibition at 10 µM (NCI 60 cancer cell lines; MDA-MB-231, Breast cancer MDA-MB-231/ATCC, 10 μM): 8.94% | inhibition at 10 µM (NCI 60 cancer cell lines; MDA-MB-435, Melanoma MDA-MB-435, 10 μM): < 5% | inhibition at 10 µM (NCI 60 cancer cell lines; MDA-MB-468, Breast cancer MDA-MB-468, 10 μM): 16.8% | inhibition at 10 µM (NCI 60 cancer cell lines; Melanoma MALM-3M, 10 μM): 16.7% | inhibition at 10 µM (NCI 60 cancer cell lines; NCI-H23, Non-small cell lung cancer NCI-H23, 10 μM): < 5% | inhibition at 10 µM (NCI 60 cancer cell lines; NCI-H226, Non-small cell lung cancer NCI-H226, 10 μM): 9.91% | inhibition at 10 µM (NCI 60 cancer cell lines; NCI-H322M, Non-small cell lung cancer NCI-H322M, 10 μM): < 5% | inhibition at 10 µM (NCI 60 cancer cell lines; NCI-H460, Non-small cell lung cancer NCI-H460, 10 μM): < 5% | inhibition at 10 µM (NCI 60 cancer cell lines; NCI-H522, Non-small cell lung cancer NCI-H522, 10 μM): 10.6% | inhibition at 10 µM (NCI 60 cancer cell lines; NCI/ADR-RES, Ovarian cancer NCI/ADR-RES, 10 μM): < 5% | inhibition at 10 µM (NCI 60 cancer cell lines; OVCAR-4, Ovarian cancer OVCAR-4, 10 μM): 5.43% | inhibition at 10 µM (NCI 60 cancer cell lines; OVCAR-8, Ovarian cancer OVCAR-8, 10 μM): < 5% | inhibition at 10 µM (NCI 60 cancer cell lines; Prostate cancer PC-3, 10 μM): 11.2% | inhibition at 10 µM (NCI 60 cancer cell lines; RPMI-8226, Leukemia RPMI-8226, 10 μM): 14.9% | inhibition at 10 µM (NCI 60 cancer cell lines; RXF 393, Renal cancer RXF 393, 10 μM): 6.27% | inhibition at 10 µM (NCI 60 cancer cell lines; SF-539, CNS Cancer SF-539, 10 μM): < 5% | inhibition at 10 µM (NCI 60 cancer cell lines; SK-MEL-2, Melanoma SK-MEL-2, 10 μM): < 5% | inhibition at 10 µM (NCI 60 cancer cell lines; SK-MEL-28, Melanoma SK-MEL-28, 10 μM): < 5% | inhibition at 10 µM (NCI 60 cancer cell lines; SK-OV-3, Ovarian cancer SK-OV-3, 10 μM): 5.67% | inhibition at 10 µM (NCI 60 cancer cell lines; SN12C, Renal cancer SN12C, 10 μM): 7.44% | inhibition at 10 µM (NCI 60 cancer cell lines; SNB-75, CNS Cancer SNB-75, 10 μM): 8.08% | inhibition at 10 µM (NCI 60 cancer cell lines; TK-10, Renal cancer TK-10, 10 μM): < 5% | inhibition at 10 µM (NCI 60 cancer cell lines; U-251, CNS Cancer U251, 10 μM): < 5% | inhibition at 10 µM (NCI 60 cancer cell lines; UACC-62, Melanoma UACC-62, 10 μM): 8.46% | inhibition at 10 µM (NCI 60 cancer cell lines; UACC-257, Melanoma UACC-257, 10 μM): < 5% | inhibition at 10 µM (NCI 60 cancer cell lines; UO-31, Renal cancer UO-31, 10 μM): 32.1%
